Patent US20080039629A1, “Benzothniazole compositions and their use as ubiquition ligation inhibitors” (RIGEL PHARMACEUTICALS, INC., priority 2003, published 2008)

Biological target: T1, E1 and His-E2 Ubch10 (Homo sapiens, UniProt P22314)
T1 construct: host or cells: E. coli (His-Ubch10); Sf9 insect cells (E1)
T1 sequence (P22314 1-1058): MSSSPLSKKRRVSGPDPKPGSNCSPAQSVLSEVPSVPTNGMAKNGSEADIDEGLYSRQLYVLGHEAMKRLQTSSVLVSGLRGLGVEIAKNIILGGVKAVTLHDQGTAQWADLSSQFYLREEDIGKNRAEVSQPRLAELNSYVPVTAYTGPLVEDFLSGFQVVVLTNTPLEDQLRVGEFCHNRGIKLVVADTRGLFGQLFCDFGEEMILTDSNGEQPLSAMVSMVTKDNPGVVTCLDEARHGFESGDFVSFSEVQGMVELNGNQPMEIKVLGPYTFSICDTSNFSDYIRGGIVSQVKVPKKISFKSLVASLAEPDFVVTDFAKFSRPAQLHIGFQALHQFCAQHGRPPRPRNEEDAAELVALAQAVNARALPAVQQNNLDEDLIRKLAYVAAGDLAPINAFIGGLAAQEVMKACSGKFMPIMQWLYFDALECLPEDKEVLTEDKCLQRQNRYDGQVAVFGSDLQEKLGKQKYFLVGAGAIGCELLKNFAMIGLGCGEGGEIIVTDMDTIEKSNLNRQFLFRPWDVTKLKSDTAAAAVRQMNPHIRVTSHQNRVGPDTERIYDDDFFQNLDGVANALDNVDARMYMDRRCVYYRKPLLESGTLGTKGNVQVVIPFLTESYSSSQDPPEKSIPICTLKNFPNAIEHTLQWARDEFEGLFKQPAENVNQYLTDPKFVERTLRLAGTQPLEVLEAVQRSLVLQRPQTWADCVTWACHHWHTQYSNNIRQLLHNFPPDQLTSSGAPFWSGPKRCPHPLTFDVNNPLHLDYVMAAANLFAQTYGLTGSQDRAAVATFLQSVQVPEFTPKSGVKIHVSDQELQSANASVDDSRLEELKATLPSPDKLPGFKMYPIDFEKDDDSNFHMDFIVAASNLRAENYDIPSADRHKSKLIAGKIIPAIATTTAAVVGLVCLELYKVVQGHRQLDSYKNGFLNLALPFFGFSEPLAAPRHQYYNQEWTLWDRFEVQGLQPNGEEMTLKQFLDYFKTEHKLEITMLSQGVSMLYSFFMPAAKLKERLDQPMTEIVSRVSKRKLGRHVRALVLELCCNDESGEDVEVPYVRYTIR
Assay: E1 to E2 transfer assay, His-E2 Ubch10, 1.0 μM ATP (low ATP)
Assay type: biochemical
Settings: Table 5, ATP inhibition properties; inhibition measured using IC50 values
From the text: Biological assays for determining the transfer of ubiquitin from the E1 activating agent to the E2 conjugating agent are described in U.S. patent application Ser. Nos. 09/542,497 and 09/826,312 as well as in the PCT Application WO 01/75145, all of which are incorporated by reference in their entirety. The following assay example illustrates one way by which the ubiquitin ligase inhibitory activity of the compounds of the invention can be assayed. This assay example is not meant to limit in any way the use of the compounds of the invention as ubiquitin ligase inhibitors.
The attachment of a ubiquitin moiety to the E2 conjugating agent was assayed using Flag-ubiquitin that was purified from E. coli, E2 Ubch10 that was purified as a His-Ubch10 from E. coli, and E1 that was purified from Sf9 insect cells (Affiniti Research Products, Exeter, U.K.). The wells of a Nickel-substrate 96-well plate (Pierce Chemical) were blocked with 100 μl of 1% casein/phosphate buffered saline (PBS) for 1 hour at room temperature. The blocked Nickel-substrate plate was then washed three times with 200 μl of PBST (0.1% Tween-20 in PBS). Subsequently, Flag-ubiquitin reaction solution was added to each well so that the final concentration was 62.5 mM Tris pH 7.5, […], 0.75 mM DTT, 1.0 μM ATP (low ATP), and 100 ng Flag-ubiquitin. The final reaction solution volume was fixed to 80 μl with Millipore-filtered water. To this was added the following: a ubiquitin agent inhibitor in 10 μl of DMSO, 10 μl of E1 and His-E2 Ubch10 in 20 mM Tris buffer, pH 7.5, and 5% glycerol so that there was 10 ng/well of E1 and 20 ng/well of His-E2 Ubch10. The reaction was then allowed to proceed at room temperature for 1 hour.
After 1 hour, the wells were washed three times with 200 μl of PBST and the amount of E2-ubiquitin complex was measured. For measuring the amount of the E2-ubiquitin complex, 100 μl of Mouse anti-flag diluted 1:10,000 (Sigma Aldrich Fluka Chemicals, St. Louis, Mo.) and anti-mouse HRP diluted 1:15,000 (Jackson Immunoresearch labs, West Grove, Pa.) in PBST were added to each well and allowed to incubate at room temperature for another hour. The wells were then washed three times with 200 μl of PBST and 100 μl of luminol substrate (⅕ dilution) was added. The luminescence of each well was then measured using a […] to calculate the amount of E2-ubiquitin complex. This procedure was repeated using His-E2 Ubch5C instead of His-E2 Ubch10.
The table below illustrates the inhibitory properties of the pharmaceutical compostions of the invention comprising the compounds listed in the table using the assays described above. Inhibition was measured using IC50 values.

| Compound | UBC10 |
| --- | --- |
| CC(C)c1ccc(C(=O)Nc2nc3ccccc3s2)cc1 [Compound 222, N-(benzo[d]thiazol-2-yl)-4-isopropylbenzamide] | −− (−− indicates marginal or no inhibition detected with this assay) |
| COc1ccc2nc(NC(=O)c3ccc([N+](=O)[O-])c(C)c3)sc2c1 [Compound 20, N-(6-methoxybenzo[d]thiazol-2-yl)-3-methyl-4-nitrobenzamide] | −− (−− indicates marginal or no inhibition detected with this assay) |
| O=C(Nc1nc2ccccc2s1)c1ccccc1Cl [Compound 194, N-(benzo[d]thiazol-2-yl)-2-chlorobenzamide] | −− (−− indicates marginal or no inhibition detected with this assay) |
| COc1ccc2nc(NC(=O)c3cccc(F)c3)sc2n1 [Compound 141, 3-fluoro-N-(5-methoxythiazolo[5,4-b]pyridin-2-yl)benzamide] | ++ (++ indicates inhibition at 50 μM or or less) |
| COc1ccc2nc(NC(=O)c3ccc([N+](=O)[O-])cc3)sc2n1 [Compound 150, N-(5-methoxythiazolo[5,4-b]pyridin-2-yl)-4-nitrobenzamide] | ++ (++ indicates inhibition at 50 μM or or less) |
| COc1ccc2nc(NC(=O)Cc3cc4ccccc4n3C)sc2c1 [Compound 40, N-(6-methoxybenzo[d]thiazol-2-yl)-2-(1-methyl-1H-indol-2-yl)acetamide] | ++ (++ indicates inhibition at 50 μM or or less) |
| COc1ccc2nc(NC(=O)c3ccncc3)sc2c1 [Compound 52, N-(6-methoxybenzo[d]thiazol-2-yl)isonicotinamide] | −− (−− indicates marginal or no inhibition detected with this assay) |
| COc1ccc2nc(NC(=O)c3ccccc3F)sc2c1 [Compound 59, 2-fluoro-N-(6-methoxybenzo[d]thiazol-2-yl)benzamide] | ++ (++ indicates inhibition at 50 μM or or less) |
| COc1ccc2nc(NC(=O)c3ccc(N)cc3)sc2c1 [Compound 16, 4-amino-N-(6-methoxybenzo[d]thiazol-2-yl)benzamide] | ++ (++ indicates inhibition at 50 μM or or less) |
| COc1ccc2nc(NC(=O)c3ccc([N+](=O)[O-])s3)sc2c1 [Compound 50, N-(6-methoxybenzo[d]thiazol-2-yl)-5-nitrothiophene-2-carboxamide] | −− (−− indicates marginal or no inhibition detected with this assay) |
| COc1ccc(-c2ccc(C(=O)Nc3nc4ccc(OC)cc4s3)cc2)cc1 [Compound 33, 4′-methoxy-N-(6-methoxy-1,3-benzothiazol-2-yl)biphenyl-4-carboxamide] | ++ (++ indicates inhibition at 50 μM or or less) |
| CCCCCCc1ccc(C(=O)Nc2nc3ccc(OC)cc3s2)cc1 [Compound 83, 4-hexyl-N-(6-methoxybenzo[d]thiazol-2-yl)benzamide] | −− (−− indicates marginal or no inhibition detected with this assay) |
| COc1ccc2nc(NC(=O)c3ccc(C)cc3C)sc2c1 [Compound 101, N-(6-methoxybenzo[d]thiazol-2-yl)-2,4-dimethyibenzamide] | ++ (++ indicates inhibition at 50 μM or or less) |
| O=C(Nc1nc2ccccc2s1)c1cccs1 [Compound 89, N-(benzo[d]thiazol-2-yl)thiophene-2-carboxamide] | −− (−− indicates marginal or no inhibition detected with this assay) |
| COc1ccc2nc(NC(=O)c3sccc3Cl)sc2n1 [Compound 144, 3-chloro-N-(5-methoxythiazolo[5,4-b]pyridin-2-yl)thiophene-2-carboxamide] | −− (−− indicates marginal or no inhibition detected with this assay) |
| CCc1ccc(C(=O)Nc2nc3ccc(C)cc3s2)cc1 [Compound 78, 4-ethyl-N-(6-methylbenzo[d]thiazol-2-yl)benzamide] | −− (−− indicates marginal or no inhibition detected with this assay) |
| COc1ccc2nc(NC(=O)c3ccc(NC(C)=O)cc3)sc2c1 [Compound 17, 4-acetamido-N-(6-methoxybenzo[d]thiazol-2-yl)benzamide] | ++ (++ indicates inhibition at 50 μM or or less) |
